Source: ChEMBL document CHEMBL4433200, “Another look at phenolic compounds in cancer therapy the effect of polyphenols on ubiquitin-proteasome system” (Eur J Med Chem, 2019)
≈ marks a conversion by molar mass, not a printed value. Each block holds one molecule with its values, some of them ahead of it.

Tests used:
[1] = target: T1, Proteasome Macropain subunit MB1 (Homo sapiens, UniProt P28074); test: Inhibition of chymotrypsin-like activity of purified human erythrocyte 20S proteasome assessed as decrease in AMC hydrolysis using Suc-LLVY-AMC as substrate preincubated for 10 mins and measured by fluorescence based method
T1 sequence (P28074 whole entry): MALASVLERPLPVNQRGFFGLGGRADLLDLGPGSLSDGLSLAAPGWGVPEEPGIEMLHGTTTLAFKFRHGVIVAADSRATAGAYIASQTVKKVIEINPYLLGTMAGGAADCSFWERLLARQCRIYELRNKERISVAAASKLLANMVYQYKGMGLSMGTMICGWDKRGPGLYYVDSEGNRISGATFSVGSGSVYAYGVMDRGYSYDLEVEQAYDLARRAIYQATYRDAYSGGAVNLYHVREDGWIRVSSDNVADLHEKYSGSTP

[2] = target: T1, Proteasome Macropain subunit MB1; test: Inhibition of chymotrypsin-like activity of purified human 20S proteasome expressed in human Jurkat cells assessed as decrease in AMC hydrolysis using Suc-Leu-Leu-Val-Tyr-AMC as substrate incubated for 2 hrs by fluorescence based method
[3] = target: T1, Proteasome Macropain subunit MB1; test: Inhibition of chymotrypsin-like activity of human 26S proteasome in human Jurkat cells assessed as decrease in AMC hydrolysis using Z-Gly-Gly-Leu-AMC as substrate after 24 hrs by fluorescence based method; format: cell-based
[4] = Inhibition of chymotrypsin-like activity of rabbit 20S proteasome assessed as AMC hydrolysis using Suc-LLVY-AMC as substrate incubated for 2hrs by fluorescence based method; set-up: species or system Oryctolagus cuniculus
[5] = target: T1, Proteasome Macropain subunit MB1; test: Inhibition of chymotrypsin-like activity of purified human 20S proteasome assessed as decrease in AMC hydrolysis using Suc-Leu-Leu-Val-Tyr-AMC as substrate incubated for 30 mins by fluorometric analysis
[6] = target: T2, Proteasome subunit beta type-5 (Rattus norvegicus, UniProt P28075); test: Inhibition of chymotrypsin-like activity of rat liver 26 proteasome assessed as decrease in fluorescence using succinyl-Leu-Leu-Val-Tyr-4-methylcoumaryl-7-amide as substrate preincubated for 30 mins followed by addition of substrate and measured after 1 hr by fluorescence based method
T2 sequence (P28075 whole entry): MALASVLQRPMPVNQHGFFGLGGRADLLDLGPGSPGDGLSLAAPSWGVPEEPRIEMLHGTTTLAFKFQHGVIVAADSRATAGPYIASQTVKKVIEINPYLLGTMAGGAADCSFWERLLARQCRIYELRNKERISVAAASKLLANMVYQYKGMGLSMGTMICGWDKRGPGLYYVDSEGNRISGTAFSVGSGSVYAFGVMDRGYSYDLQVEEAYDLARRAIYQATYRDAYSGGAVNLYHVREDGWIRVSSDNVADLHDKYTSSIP

[7] = target: T1, Proteasome Macropain subunit MB1; test: Inhibition of chymotrypsin-like activity of human 26S proteasome extracted from human Jurkat cells assessed as decrease in AMC hydrolysis using […] as substrate after 90 mins by fluorometric analysis; format: cell-free
[8] = target: T1, Proteasome Macropain subunit MB1; test: Inhibition of chymotrypsin-like activity of human 26S proteasome in human Jurkat cells assessed as decrease in AMC hydrolysis using […] as substrate preincubated for 12 hrs followed by addition of substrate and measured after 2 hrs by fluorometric analysis; format: cell-based
[9] = Inhibition of chymotrypsin-like activity of purified rabbit 20S proteasome assessed as decrease in AMC hydrolysis using Suc-Leu-Leu-Val-Tyr-AMC as substrate incubated for 30 mins by fluorescence based method; set-up: species or system Oryctolagus cuniculus
[10] = target: T1, Proteasome Macropain subunit MB1; test: Inhibition of chymotrypsin-like activity of human 26S proteasome extracted from human LNCap cells assessed as decrease in AMC hydrolysis using Suc-Leu-Leu-Val-Tyr-AMC as substrate incubated for 60 mins by fluorescence based method; format: cell-free

SMILES: O=c1c(O)c(-c2cc(O)c(O)c(O)c2)oc2cc(O)cc(O)c12 [MYRICETIN]
- IC50 [2]: 10 µM
- IC50 [3]: 12 µM

SMILES: O=C(O[C@@H]1Cc2c(O)cc(O)cc2O[C@H]1c1cc(O)c(O)c(O)c1)c1cc(O)c(O)c(O)c1 [GALLOCATECHIN GALLATE]
- IC50 [5]: 0.187 µM

SMILES: O=C(O[C@@H]1Cc2c(O)cc(O)cc2O[C@@H]1c1ccc(O)c(O)c1)c1cc(O)c(O)c(O)c1 [EPICATECHIN GALLATE]
- IC50 [5]: 0.194 µM

SMILES: O=C1C[C@@H](c2ccc(O)c(O)c2)Oc2cc(O)cc(O)c21 [ERIODICTYOL]
- IC50 [2]: 16.2 µM
- IC50 [3]: 14.6 µM

SMILES: O=c1c(O)c(-c2ccc(O)c(O)c2)oc2cc(O)cc(O)c12 [QUERCETIN]
- IC50 [2]: 3.5 µM
- IC50 [3]: 2 µM

SMILES: O=c1cc(-c2ccccc2)oc2cc(O)cc(O)c12 [CHRYSIN]
- IC50 [2]: 4.9 µM
- IC50 [3]: 6.1 µM

SMILES: O=C1C[C@@H](c2ccc(O)cc2)Oc2cc(O)cc(O)c21 [NARINGENIN]
- IC50 [2]: 48.8 µM
- IC50 [3]: 41.6 µM

SMILES: O=C(O)c1cc(O)c(O)c(O)c1 [GALLIC ACID]
- IC50 [5]: 7100 µM

SMILES: O=c1cc(-c2ccc(O)cc2)oc2cc(O)cc(O)c12 [APIGENIN]
- IC50 [2]: 1.8 to 2.3 µM
- IC50 [3]: 1 to 1.9 µM

SMILES: O=C(O[C@@H]1Cc2c(O)cc(O)cc2O[C@@H]1c1cc(O)c(O)c(O)c1)c1cc(O)c(O)c(O)c1 [EPIGALOCATECHIN GALLATE]
- IC50 [7]: 1 to 10 µM
- IC50 [5]: 0.086 to 0.194 µM
- IC50 [8]: 18 µM

SMILES: Oc1cc(O)c2c(c1)O[C@H](c1cc(O)c(O)c(O)c1)[C@H](O)C2 [EPIGALLOCATECHIN]
- IC50 [5]: 1200 µM

SMILES: O=c1cc(-c2ccc(O)c(O)c2)oc2cc(O)cc(O)c12 [LUTEOLIN]
- IC50 [2]: 1.5 µM
- IC50 [3]: 1.3 µM

Second part, the molecule after the results:

- IC50 [1]: > 100 µM
SMILES: COc1ccc2c(c1)O[C@H]1c3ccc(O)cc3OC[C@@H]21

- IC50 [4]: 1.85 µM
SMILES: COc1cc(/C=C/C(=O)CC(=O)/C=C/c2ccc(O)c(OC)c2)ccc1O [CURCUMIN]

- IC50 [1]: > 100 µM
SMILES: O=C1C[C@@H](c2ccc(O)cc2)Oc2cc(O)ccc21 [LIQUIRTIGENIN]

- IC50 [6]: 0.06 µg/mL (≈ 0.234 µM)
SMILES: Oc1ccc(CC2COc3cc(O)ccc3C2)cc1 (configuration not stated)

- IC50 [6]: 0.018 µg/mL (≈ 0.0713 µM)
SMILES: C=CC(/C=C\c1ccc(O)cc1)c1ccc(O)cc1 (configuration not stated)

- IC50 [1]: > 100 µM
SMILES: O=c1c(-c2ccc(O)cc2)coc2cc(O)ccc12 [DAIDZEIN]

- IC50 [6]: > 0.25 µg/mL
SMILES: COc1cc(O)c(C(=O)c2ccc(O)cc2)c(O)c1

- IC50 [6]: 0.046 µg/mL (≈ 0.178 µM)
SMILES: COc1cc(O)ccc1CCCc1ccc(O)cc1 [BROUSSONIN B]

- IC50 [1]: 4.88 µM
SMILES: O=C(/C=C/c1ccc(O)cc1)c1ccc(O)cc1O [ISOLIQUIRITIGENIN]

- IC50 [5]: 0.124 µM
SMILES: O=C(O[C@@H]1Cc2c(O)cc(O)cc2O[C@H]1c1ccc(O)c(O)c1)c1cc(O)c(O)c(O)c1 [(-)-CATECHINGALLATE]

- IC50 [2]: 10.5 µM
- IC50 [3]: 11 µM
SMILES: O=c1c(O)c(-c2ccc(O)cc2)oc2cc(O)cc(O)c12 [KAEMPFEROL]

- IC50 [1]: > 100 µM
SMILES: COc1ccc(-c2coc3cc(O)ccc3c2=O)cc1 [FORMONONETIN]

- IC50 [1]: 9.26 µM
- IC50 [9]: 26 µM
- IC50 [10]: 65 to 70 µM
SMILES: O=c1c(-c2ccc(O)cc2)coc2cc(O)cc(O)c12 [GENISTEIN]
